According to PubChem BioAssay AID248 (DTP/NCI, 2004):
“And” between values parts separate entries of the source, which are not always exact repeats. Identical values can stand only once. Toxic doses and inconclusive results are not listed.

Test system: L1210 leukemia ip in BDF1 mice, survival T/C
Assay: NCI In Vivo Anticancer Drug Screen. Data for tumor model L1210 Leukemia (intraperitoneal) in B6D2F1 (BDF1) mice
Conditions: endpoint: mean survival time, higher = longer survival
How it was run: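 Read-out is survival time, reported as the treated-group measurement over the vehicle-control measurement.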

[1] = dose: 100.0 mg/kg/injection, schedule: Q04DX003 (ip), vehicle: saline
[2] = dose: 200.0 mg/kg/injection, schedule: Q04DX003 (ip), vehicle: saline
[3] = dose: 400.0 mg/kg/injection, schedule: Q04DX003 (ip), vehicle: saline
[4] = dose: 25.0 mg/kg/injection, schedule: Q01DX009 (ip), vehicle: Klucel (hydroxypropylcellulose) (HPC)
[5] = dose: 50.0 mg/kg/injection, schedule: Q01DX009 (ip), vehicle: Klucel (hydroxypropylcellulose) (HPC)
[6] = dose: 100.0 mg/kg/injection, schedule: Q01DX009 (ip), vehicle: Klucel (hydroxypropylcellulose) (HPC)
[7] = dose: 100.0 mg/kg/injection, schedule: Q01DX001 (ip), vehicle: Klucel (hydroxypropylcellulose) (HPC)
[8] = dose: 200.0 mg/kg/injection, schedule: Q01DX001 (ip), vehicle: Klucel (hydroxypropylcellulose) (HPC)
[9] = dose: 100.0 mg/kg/injection, schedule: Q04DX003 (ip), vehicle: Klucel (hydroxypropylcellulose) (HPC)
[10] = dose: 200.0 mg/kg/injection, schedule: Q04DX003 (ip), vehicle: Klucel (hydroxypropylcellulose) (HPC)
[11] = dose: 400.0 mg/kg/injection, schedule: Q04DX003 (ip), vehicle: Klucel (hydroxypropylcellulose) (HPC)
[12] = dose: 400.0 mg/kg/injection, schedule: Q01DX001 (ip), vehicle: Klucel (hydroxypropylcellulose) (HPC)
[13] = dose: 100.0 mg/kg/injection, schedule: Q01DX009 (ip), vehicle: saline with Tween-80
[14] = dose: 200.0 mg/kg/injection, schedule: Q01DX009 (ip), vehicle: saline with Tween-80

CC(=O)Nc1cccc2cc(O)ccc12
T/C (dose: 100.0 mg/kg/injection, schedule: Q04DX003 (ip), vehicle: gum acacia): 98 % of control | T/C (dose: 200.0 mg/kg/injection, schedule: Q04DX003 (ip), vehicle: gum acacia): 100 % of control | T/C (dose: 400.0 mg/kg/injection, schedule: Q04DX003 (ip), vehicle: gum acacia): 88 % of control

N#CC1C=Cc2ccccc2N1C(=O)Oc1ccccc1 (stereo not drawn)
T/C [1]: 104 % of control | T/C [2]: 93 % of control | T/C [3]: 94 % of control

NCc1cccn1OCc1ccccc1
T/C [4]: 108 % of control | T/C [5]: 108 % of control | T/C [6]: 152 % of control

O=S(=O)(OCC1CC2C=CC1C2)c1ccc(Br)cc1 (stereo not drawn)
T/C (dose: 100.0 mg/kg/injection, schedule: Q04DX003 (ip), vehicle: other): 86 % of control | T/C (dose: 200.0 mg/kg/injection, schedule: Q04DX003 (ip), vehicle: other): 89 % of control | T/C (dose: 400.0 mg/kg/injection, schedule: Q04DX003 (ip), vehicle: other): 89 % of control

O=C1NC(=O)C(c2cccc(Cl)c2)N1 (stereo not drawn)
T/C (dose: 50.0 mg/kg/injection, schedule: Q01DX001 (ip), vehicle: saline): 106 % of control | T/C (dose: 100.0 mg/kg/injection, schedule: Q01DX001 (ip), vehicle: saline): 93 % of control | T/C (dose: 200.0 mg/kg/injection, schedule: Q01DX001 (ip), vehicle: saline): 98 % of control | T/C (dose: 400.0 mg/kg/injection, schedule: Q01DX001 (ip), vehicle: saline): 104 % of control

O=Nc1c(O)[nH]c(=O)[nH]c1=O
T/C [7]: 95 % of control | T/C [8]: 106 % of control

N#CC(c1ccccc1)c1ccc(F)cc1 (stereo not drawn)
T/C [6]: 104 % of control | T/C [9]: 100 % of control | T/C (dose: 200.0 mg/kg/injection, schedule: Q01DX009 (ip), vehicle: Klucel (hydroxypropylcellulose) (HPC)): 97 % of control | T/C [10]: 96 % of control | T/C (dose: 400.0 mg/kg/injection, schedule: Q01DX009 (ip), vehicle: Klucel (hydroxypropylcellulose) (HPC)): 98 % of control | T/C [11]: 98 % of control

Cc1c(F)c(Br)c([N+](=O)[O-])c(C)c1[N+](=O)[O-]
T/C [7]: 96 % of control | T/C [8]: 102 % of control | T/C [12]: 102 % of control

CCOC(=O)C(=CNc1cccc2cnccc12)C(=O)OCC
T/C (dose: 50.0 mg/kg/injection, schedule: Q01DX009 (ip), vehicle: saline with Tween-80): 91 % of control | T/C [13]: 88 % of control | T/C [14]: 88 % of control

CCCCN(C)N=Nc1cn(C2OC(CO)C(O)C2O)c(=O)[nH]c1=O (stereo not drawn)
T/C (dose: 100.0 mg/kg/injection, schedule: Q01DX009 (ip), vehicle: water): 112 % of control | T/C (dose: 100.0 mg/kg/injection, schedule: Q04DX003 (ip), vehicle: water): 96 % of control | T/C (dose: 200.0 mg/kg/injection, schedule: Q01DX009 (ip), vehicle: water): 106 % of control | T/C (dose: 200.0 mg/kg/injection, schedule: Q04DX003 (ip), vehicle: water): 102 % of control | T/C (dose: 400.0 mg/kg/injection, schedule: Q01DX009 (ip), vehicle: water): 117 % of control | T/C (dose: 400.0 mg/kg/injection, schedule: Q04DX003 (ip), vehicle: water): 107 % of control

O=NN(CCCl)C(=O)NC1CCC(Cl)CC1 (stereo not drawn)
T/C (dose: 12.0 mg/kg/injection, schedule: Q01DX001 (ip), vehicle: Klucel (hydroxypropylcellulose) (HPC)): 123 % of control | T/C (dose: 21.0 mg/kg/injection, schedule: Q01DX001 (ip), vehicle: Klucel (hydroxypropylcellulose) (HPC)): 217 % of control | T/C (dose: 21.0 mg/kg/injection, schedule: Q01DX001 (ip), vehicle: carboxymethylcellulose (CMC)): 182 % of control | T/C (dose: 26.0 mg/kg/injection, schedule: Q01DX001 (ip), vehicle: Klucel (hydroxypropylcellulose) (HPC)): 303 % of control | T/C (dose: 34.0 mg/kg/injection, schedule: Q01DX001 (ip), vehicle: Klucel (hydroxypropylcellulose) (HPC)): 387 % of control | T/C (dose: 34.0 mg/kg/injection, schedule: Q01DX001 (ip), vehicle: carboxymethylcellulose (CMC)): 346 % of control | T/C (dose: 40.0 mg/kg/injection, schedule: Q01DX001 (ip), vehicle: Klucel (hydroxypropylcellulose) (HPC)): 291 % of control | T/C (dose: 49.0 mg/kg/injection, schedule: Q01DX001 (ip), vehicle: Klucel (hydroxypropylcellulose) (HPC)): 460 % of control | T/C (dose: 49.0 mg/kg/injection, schedule: Q01DX001 (ip), vehicle: carboxymethylcellulose (CMC)): 469 % of control | T/C (dose: 60.0 mg/kg/injection, schedule: Q01DX001 (ip), vehicle: Klucel (hydroxypropylcellulose) (HPC)): 275 % of control | T/C (dose: 74.0 mg/kg/injection, schedule: Q01DX001 (ip), vehicle: Klucel (hydroxypropylcellulose) (HPC)): 439 % of control | T/C (dose: 74.0 mg/kg/injection, schedule: Q01DX001 (ip), vehicle: carboxymethylcellulose (CMC)): 469 % of control | T/C (dose: 90.0 mg/kg/injection, schedule: Q01DX001 (ip), vehicle: Klucel (hydroxypropylcellulose) (HPC)): 91 % of control | T/C (dose: 110.0 mg/kg/injection, schedule: Q01DX001 (ip), vehicle: Klucel (hydroxypropylcellulose) (HPC)): 218 % of control | T/C (dose: 110.0 mg/kg/injection, schedule: Q01DX001 (ip), vehicle: carboxymethylcellulose (CMC)): 153 % of control | T/C (dose: 133.0 mg/kg/injection, schedule: Q01DX001 (ip), vehicle: Klucel (hydroxypropylcellulose) (HPC)): 98 % of control

CN(C)CCOC(=O)N1c2ccccc2C(C)(C)c2ccccc21
T/C (dose: 5.8 mg/kg/injection, schedule: Q01DX001 (ip), vehicle: water): 93 % of control | T/C (dose: 11.5 mg/kg/injection, schedule: Q01DX001 (ip), vehicle: water): 98 % of control | T/C (dose: 23.0 mg/kg/injection, schedule: Q01DX001 (ip), vehicle: water): 91 % of control | T/C (dose: 44.4 mg/kg/injection, schedule: Q01DX001 (ip), vehicle: water): 95 % of control | T/C (dose: 50.0 mg/kg/injection, schedule: Q01DX001 (ip), vehicle: water): 100 % of control | T/C (dose: 66.7 mg/kg/injection, schedule: Q01DX001 (ip), vehicle: water): 97 % of control | T/C (dose: 150.0 mg/kg/injection, schedule: Q01DX001 (ip), vehicle: water): 95 % of control

CC1(CCC(=O)/C=C/c2ccccc2)CCC/C(=C/c2ccccc2)C1=O (stereo not drawn)
T/C (dose: 12.5 mg/kg/injection, schedule: Q01DX009 (ip), vehicle: Klucel (hydroxypropylcellulose) (HPC)): 97 % of control | T/C [4]: 101 % of control | T/C [5]: 103 % of control | T/C [9]: 91 % of control | T/C [10]: 91 % of control | T/C [11]: 91 % of control

O=C(c1ccccc1)C(O)c1ccccc1 (stereo not drawn)
T/C [13]: 89 % of control | T/C [14]: 94 % of control | T/C (dose: 400.0 mg/kg/injection, schedule: Q01DX009 (ip), vehicle: saline with Tween-80): 100 % of control

Nc1nc(-c2cccc([N+](=O)[O-])c2)nc2[nH]ncc12
T/C (dose: 37.5 mg/kg/injection, schedule: Q01DX001 (ip), vehicle: Klucel (hydroxypropylcellulose) (HPC)): 98 % of control | T/C (dose: 75.0 mg/kg/injection, schedule: Q01DX001 (ip), vehicle: Klucel (hydroxypropylcellulose) (HPC)): 98 % of control | T/C (dose: 150.0 mg/kg/injection, schedule: Q01DX001 (ip), vehicle: Klucel (hydroxypropylcellulose) (HPC)): 96 % of control

NC1=NC(c2ccc(Cl)cc2)N(c2ccc(S(=O)(=O)Nc3ncccn3)cc2)C(N)=N1 (stereo not drawn)
T/C [1]: 103 % of control | T/C [2]: 96 % of control | T/C [3]: 100 % of control

CCOC(=O)c1c(-c2ccccc2)cn2c1OC(C)CC2(C)C (stereo not drawn)
T/C [7]: 105 % of control | T/C [8]: 100 % of control | T/C [12]: 93 % of control

O=S1(=O)C(c2ccccc2)=C1c1ccccc1
T/C (dose: 12.5 mg/kg/injection, schedule: Q01DX001 (ip), vehicle: other): 100 % of control | T/C (dose: 12.5 mg/kg/injection, schedule: Q01DX009 (ip), vehicle: other): 95 % of control | T/C (dose: 25.0 mg/kg/injection, schedule: Q01DX001 (ip), vehicle: other): 94 % of control and 100 % of control | T/C (dose: 25.0 mg/kg/injection, schedule: Q01DX009 (ip), vehicle: other): 101 % of control | T/C (dose: 50.0 mg/kg/injection, schedule: Q01DX001 (ip), vehicle: other): 97 % of control and 101 % of control | T/C (dose: 50.0 mg/kg/injection, schedule: Q01DX009 (ip), vehicle: other): 86 % of control
